The values below come from PMC10388363, “Novel 1,4-Dihydropyridines as Specific Binders and Activators of SIRT3 Impair Cell Viability and Clonogenicity and Downregulate Hypoxia-Induced Targets in Cancer Cells” (Journal of Medicinal Chemistry, 2023).

Read-outs that look alike come from different tables or passages of the source.

Series [1] concerns SNAIL, SLUG, ZEB1, COL1A2, MMP2/9 expression in MDA-MB-231. Kind of series: qRT-PCR of EMT master regulator and ECM genes in MDA-MB-231 cells. The note with it: 48 h; for EMT master regulator and ECM gene expression: MDA-MB-231, 10 μM; for SLUG expression / SNAIL, ZEB1, COLLAGEN, and MMP2/9 gene expression / SLUG gene expression / SNAIL, COL1A2, and MMP2/9 expression levels: MDA-MB-231, 50 μM; for SLUG expression / SNAIL, ZEB1, COLLAGEN, and MMP2/9 gene expression: hypoxic conditions (CoCl2); for SLUG gene expression / SNAIL, COL1A2, and MMP2/9 expression levels: normoxia. In kind it is cell-based, human. The protocol:
Afterward, based on the double localization described for SIRT3, which was primarily found into the mitochondria but translocated into the nucleus in stressful conditions,[75] the effects of SIRT3 activators on gene expression regulation were evaluated in MDA-MB-231 cells.
Considering the previously described involvement of hypoxia in EMT induction,[78] we extended our biological study by analyzing the effects of SIRT3 activators on gene expression regulation under hypoxic conditions. Hypoxia induction of EMT was verified by gene expression analysis (upregulation of SNAIL, ZEB1, COLLAGEN, MMPs, and SLUG) after 72 h of treatment with CoCl2. In these experimental conditions, we verified the effectiveness of the previously tested SIRT3 activators 3c and 3d (50 μM, 48 h) in reducing EMT genes expression.
RNAs were extracted by ReliaPrep RNA tissue miniprep system (Promega, Madison, WI, USA) and reverse transcribed with an iScriptTM c-DNA synthesis kit (Bio-Rad Laboratories Inc., Hercules, CA, USA). Real-time (RT-qPCR) analyses were performed on cDNAs that were amplified by the qPCR reaction using GoTaq qPCR Master Mix (Promega, Madison, WI, USA). Relative amounts obtained with the 2(−ΔCt) method were normalized with respect to the housekeeping gene human L32. Statistical analysis was performed with GraphPad Prism 8, and differences in gene expression were considered significant with a p-value <0.05.
A general note: Quantitative PCR measures a nucleic acid by following its amplification.

The subject of series [2] is MDA-MB-231 cells. Description: Scratch assay, MDA-MB-231 cell migration. The class given is cell-based, human. The note with it: 50 μM, 48 h. The protocol: Next, a scratch assay on MDA-MB-231 cells after treatment with 3c and 3d at 50 μM for 48 h was performed to assess their effect on cell migration (Figure 14).
Cell lines were maintained in culture medium (as above) until reaching 100% confluence, then shifted to a serum-depleted culture medium to inhibit cell proliferation, as described in Magistri et al.;[83] a scratch wound was created on the cell layer using a micropipette tip. Micrographs were taken at 0 and 48 h after the scratch. Cell-devoid areas at 0 and 48 h after the scratch were quantified through the Fiji ImageJ image processing package.

The subject of series [3] is HaCaT cells. Kind of series: Cell viability / cell death in healthy HaCaT cells. The note with it: for toxicity against healthy HaCaT cells: 5, 10, and 25 μM, 24 and 48 h; for Cell death (%) T24 / Cell death (%) T48: HaCaT; for Cell death (%) T24: 24 h; for Cell death (%) T48: 48 h. In kind it is cell-based, human. The protocol: Breast cancer cell line MDA-MB-231, anaplastic thyroid cancer cell line CAL-62 and human keratinocytes HaCaT were purchased from ATCC and were cultured in RPMI 1640 medium (R0883 Sigma Aldrich-MERCK) (MDA-MB-231 and CAL-62) or DMEM medium (11965092, Gibco) supplemented with 10% fetal bovine serum (Sigma-Aldrich-MERCK, F9665), 2 mM glutamine (G7513; Sigma-Aldrich-MERCK), 100 units/mL penicillin and 0.1 mg/mL streptomycin (P0781; Sigma-Aldrich-MERCK). Adherent cells were detached by Trypsin–EDTA solution (TA049; Sigma-Aldrich-MERCK). Cells were maintained at 37 °C in humidified incubator with 5% CO2. Cells were treated with […] (CoCl2) (Merck; C8661) dissolved in distilled, sterile water for 24 h to induce hypoxia (200 μM). […] SIRT3 inhibitor 3-TYP was dissolved in DMSO and added to a final concentration of 1 μM for 24 and/or 48 h.
(§1) Cell viability was assessed by the trypan blue exclusion assay. At the end of treatments, cells were harvested and stained with 0,4% trypan blue (Merck; T8154). The cell suspension was applied to a hemocytometer and counted with phase contrast microscopy (NIKON EclipseTE2000U, Nikon Netherlands, Amsterdam, The Netherlands).

For series [4], the system named is MDA-MB-231 cells. Kind of series: Cell viability / cell death, trypan blue exclusion, MDA-MB-231. The class given is cell-based, human. The following applies: for IC50: MDA-MB-231, 48 h, read-out: IC50 reducing cell viability. On the procedure: (§2) Afterward, the selected compounds 3a–d were assayed at 50 μM for 24 and 48 h in CAL-62 and MDA-MB-231 cells to assess their ability to impair the cell viability and colony formation in either normoxia or hypoxia-induced condition, the latter obtained by adding a 200 μM cobalt chloride solution, as described in previous reports[69] (Figure 8). Most cancer cells, mainly solid types, are known to have an altered metabolism due to hypoxia, a non-physiological level of oxygen tension, which contributes to therapy resistance by causing cellular quiescence.[70] Moreover, hypoxic cancer cells can induce several factors that lead to cell proliferation and colony formation.[71]
(§3) Breast cancer cell line MDA-MB-231, anaplastic thyroid cancer cell line CAL-62 and human keratinocytes HaCaT were purchased from ATCC and were cultured in RPMI 1640 medium (R0883 Sigma Aldrich-MERCK) (MDA-MB-231 and CAL-62) or DMEM medium (11965092, Gibco) supplemented with 10% fetal bovine serum (Sigma-Aldrich-MERCK, F9665), 2 mM glutamine (G7513; Sigma-Aldrich-MERCK), 100 units/mL penicillin and 0.1 mg/mL streptomycin (P0781; Sigma-Aldrich-MERCK). Adherent cells were detached by Trypsin–EDTA solution (TA049; Sigma-Aldrich-MERCK). Cells were maintained at 37 °C in humidified incubator with 5% CO2. Cells were treated with […] (CoCl2) (Merck; C8661) dissolved in distilled, sterile water for 24 h to induce hypoxia (200 μM). Hypoxic and normoxic cells were also treated with 10/50 μM of the indicated compounds (dissolved in DMSO) for 48 h, maintaining the CoCl2 in the culture medium for hypoxic conditions. SIRT3 inhibitor 3-TYP was dissolved in DMSO and added to a final concentration of 1 μM for 24 and/or 48 h.
as §1

In series [5] the test system is CAL-62 cells. Kind of series: Cell viability / cell death, trypan blue exclusion, CAL-62. In kind it is cell-based. The following applies: for reduction of cell viability: CAL-62, 50 μM; for EC50: CAL-62, 48 h, read-out: EC50 cell death induction. On the procedure:
as §2, §3, §1

[6] abbreviates: MDA-MB-231, 50 μM, 48 h, hypoxia.
[7] abbreviates: MDA-MB-231, 50 μM, 48 h, normoxia.

Regarding `CCOC(=O)C1=CN(C(=O)c2ccc(OC)c(OC)c2)C=C(C(=O)OCC)C1c1ccccc1` [Compound 3c, Diethyl 1-(3,4-dimethoxybenzoyl)-4-phenyl-1,4-dihydropyridine-3,5-dicarboxylate], in series [1], the “EMT master regulator and ECM gene expression” value was “effective even at 10 μM”; the SLUG expression result is “affected”; the “SNAIL, ZEB1, COLLAGEN, and MMP2/9 gene expression” value is recorded as “impair”; the SLUG gene expression result is on record as “not significantly affected”. The “SNAIL, COL1A2, and MMP2/9 expression levels” value in series [1] is “reduce”. Besides, in series [2], the MDA-MB-231 cell migration result is “nicely reduce”. For the same compound, in series [3], the “toxicity against healthy HaCaT cells” value was “negligible toxicity”.
By IC50 is commonly meant the concentration that inhibits the measured activity by half. One may read the viability as a read-out of living cells in per cent, often relative to untreated cells. One may read the EC50 as the concentration that produces a half-maximal response. Consider `CCOC(=O)C1=CN(C(=O)c2cc(OC)cc(OC)c2)C=C(C(=O)OCC)C1c1ccccc1` [Compound 3d, Diethyl 1-(3,5-dimethoxybenzoyl)-4-phenyl-1,4-dihydropyridine-3,5-dicarboxylate], for which, in series [1], the “EMT master regulator and ECM gene expression” value is given as “effective even at 10 μM”. The SLUG expression entry in series [1] is “affected”. Also, in series [1], the “SNAIL, ZEB1, COLLAGEN, and MMP2/9 gene expression” value is “impair”. In addition, in series [1], the SLUG gene expression result was “not significantly affected”. Moreover, the “SNAIL, COL1A2, and MMP2/9 expression levels” value in series [1] is given as “reduce”. Further, the MDA-MB-231 cell migration result in series [2] is listed as “nicely reduce”. Further, in series [2], the “impairment of MDA-MB-231 migration rate” value is recorded as “over 75%”. Also, the IC50 in series [4] (Homo sapiens, hypoxia) is 10.6 µM; in series [4] (Homo sapiens, normoxia), 3.64 µM. Also, the viability at 10 µM was 36.3% in series [4] (Homo sapiens, MDA-MB-231, 10 μM, 48 h, read-out: Cell viability (%) T48) and 79.6% in series [5] (Homo sapiens, CAL-62, 10 μM, 24 h, read-out: Cell viability (%) T24). Moreover, the reduction in cell viability (%) at 50 µM in series [4] (Homo sapiens, MDA-MB-231, 50 μM, 24 h, normoxia, read-out: viability impairment) is 34%. Moreover, the “Cell death (%) T48” value in series [4] (MDA-MB-231, 10 μM, 48 h) was 63,6%; in series [5] (CAL-62, 10 μM, 48 h), 36,6%; in series [3] (5 μM), 16,1%; in series [3] (10 μM), 33,9%; in series [3] (25 μM) it was 47,3%. Besides, the reduction viability in series [4] (setting [6]) and in series [4] (setting [7]) was 75% each time. The “reduction of cell viability” value in series [5] (24 h, normoxia) is on record as 55%; in series [5] (48 h, hypoxia (200 μM CoCl2)) it was 80%; in series [5] (48 h, normoxia) it was 90%. Further, the concentration giving a half-maximal response (EC50) in series [5] (Homo sapiens, hypoxia) was around 3.5 µM; in series [5] (Homo sapiens, normoxia), around 16.7 µM. Further, in series [3], the “toxicity against healthy HaCaT cells” value was “some degree of cell viability reduction and cell death only after 48 h treatment and at higher concentrations (10 and 25 μM)”. Further, the “Cell death (%) T24” value in series [3] (5 μM) is reported as 3,9%; in series [3] (10 μM) it was 8,4%; in series [3] (25 μM), 15,3%.
Consider `CCOC(=O)C1=CN(C(=O)c2cccc(OC)c2)C=C(C(=O)OCC)C1c1ccccc1` [Compound 3a, Diethyl 1-(3-methoxybenzoyl)-4-phenyl-1,4-dihydropyridine-3,5-dicarboxylate], for which the results for the reduction viability in series [4] (setting [6]) and in series [4] (setting [7]) were 11% and 60%, respectively. For the same compound, the “reduction of cell viability” value in series [5] (24 h, normoxia) was found to be 37%; in series [5] (48 h, hypoxia (200 μM CoCl2)), 59%; in series [5] (48 h, normoxia) it was 64%.
